SMILES strings stand for the structures.

Test [1] deals with T7 RNA polymerase (Escherichia phage T7, UniProt P00573). Briefly: In vitro transcription yields of modified mRNA. It counts as biochemical. The note with it: for EPO In Vitro Transcription yield: EPO mRNA made with the modified NTP(s); for GCSF In Vitro Transcription yield: GCSF mRNA made with the modified NTP(s); for Luc In Vitro Transcription yield: Luciferase mRNA made with the modified NTP(s).

Test [2] concerns Rabbit Reticulocyte Lysate. The test can be described thus: In vitro translation screen, firefly Luciferase modRNA (luciferase assay, relative light units). The class given is biochemical. The note with it: Table 20; 250 ng modRNA, 45 min, 30° C.
Test [3] relates to Rabbit Reticulocyte Lysate. The test can be described thus: In vitro translation screen, human GCSF modRNA (GCSF ELISA). The note with it: Table 20; 250 ng modRNA, 45 min, 30° C. It counts as biochemical. Background: ELISA stands for enzyme-linked immunosorbent assay.
For test [4], the system named is Rabbit Reticulocyte Lysate. The test can be described thus: In vitro translation screen, human EPO modRNA (EPO ELISA). The note with it: Table 20; 250 ng modRNA, 45 min, 30° C. The class given is biochemical.
The subject of test [5] is HeLa cells. Briefly: Transfection in HeLa cells, Luciferase modRNA (luciferase assay, relative light units). It counts as cell-based, human. The note with it: Table 22, 83 ng modRNA, Lipofectamine 2000, 18 h to 22 h. The method, then: The day before transfection, 20.000 HeLa cells (ATCC no. CCL-2; Manassas, Va.) were harvested by treatment with Trypsin-EDTA solution (LifeTechnologies, Grand Island, N.Y.) and seeded in a total volume of 100 ul EMEM medium (supplemented with 10% FCS and 1× Glutamax) per well in a 96-well cell culture plate (Corning, Manassas, Va.). The cells were grown at 37° C. in 5% CO2 atmosphere overnight. Next day, 83 ng of Luciferase modRNA or 250 ng of human GCSF modRNA, harboring chemical modifications on the bases or the ribose units, were diluted in 10 ul final volume of OPTI-MEM (LifeTechnologies, Grand Island, N.Y.). Lipofectamine 2000 (LifeTechnologies, Grand Island, N.Y.) was used as transfection reagent and 0.2 μl were diluted in 10 ul final volume of OPTI-MEM. After 5 min incubation at room temperature, both solutions were combined and incubated additional 15 min at room temperature. Then the 20 μl were added to the 100 ul cell culture medium containing the HeLa cells. The plates were then incubated as described before.
After 18 h to 22 h incubation, cells expressing luciferase were lysed with 100 μl Passive Lysis Buffer (Promega, Madison, Wis.) according to manufacturer instructions. Aliquots of the lysates were transferred to white opaque polystyrene 96-well plates (Corning, Manassas, Va.) and combined with 100 ul complete luciferase assay solution (Promega, Madison, Wis.). The lysate volumes were adjusted or diluted until no more than 2 mio relative light units per well were detected for the strongest signal producing samples. […] The plate reader was a BioTek Synergy H1 (BioTek, Winooski, Vt.).

Test [6] deals with HeLa cells. The test can be described thus: Transfection in HeLa cells, human GCSF modRNA (GCSF ELISA of supernatant). It counts as cell-based. The note with it: Table 22, 250 ng modRNA, 18 h to 22 h.
Test [7] concerns HeLa cells. Briefly: Transfection in HeLa cells, human EPO modRNA (EPO ELISA of supernatant). The note with it: Table 22, 18 h to 22 h. The class given is cell-based.
The subject of test [8] is human PBMC. Briefly: PBMC cytokine assay, interferon-alpha production (IFN-alpha multi-subtype ELISA). The class given is cell-based. As to the method: 50 mL of human blood from three donors was received from Research Blood Components (Brighton, Mass.) in sodium heparin tubes. […] The tubes were centrifuged at 2000 rpm for 30 minutes with low acceleration and braking (Thermo, Waltham, Mass., 75004506). The tubes were removed and the buffy coat PBMC layers were gently transferred to a fresh 50 mL conical and washed with DPBS. The tubes were centrifuged at 1450 rpm for 10 minutes. The supernatant was aspirated and the PBMC pellets were resuspended and washed in 50 mL of DPBS. The tubes were centrifuged at 1450 rpm for 10 minutes. […] The cell suspensions were adjusted to a concentration of 3.0×10^6 cells/mL live cells. […] Within 30 minutes, transfection mixtures were added to each well at a volume of 50 μL per well. […] The transfection mixtures were then transferred to each of the human PBMC plates at 50 μL per well (6 wells per mRNA sample). The plates were then incubated at 37° C. […] In order to harvest the supernatant, plates were centrifuged at 1450 rpm for 5 min in a swinging plate rotor. The supernatant of 6 wells transfected with the same mRNA was carefully harvested and pooled in a single well of a fresh 96-well plate. Supernatants were either frozen or used fresh until ELISA analysis was done. The ability of unmodified and modified mRNA to trigger innate immune recognition as measured by interferon-alpha production.

Chain of T7 RNA polymerase (P00573 whole entry): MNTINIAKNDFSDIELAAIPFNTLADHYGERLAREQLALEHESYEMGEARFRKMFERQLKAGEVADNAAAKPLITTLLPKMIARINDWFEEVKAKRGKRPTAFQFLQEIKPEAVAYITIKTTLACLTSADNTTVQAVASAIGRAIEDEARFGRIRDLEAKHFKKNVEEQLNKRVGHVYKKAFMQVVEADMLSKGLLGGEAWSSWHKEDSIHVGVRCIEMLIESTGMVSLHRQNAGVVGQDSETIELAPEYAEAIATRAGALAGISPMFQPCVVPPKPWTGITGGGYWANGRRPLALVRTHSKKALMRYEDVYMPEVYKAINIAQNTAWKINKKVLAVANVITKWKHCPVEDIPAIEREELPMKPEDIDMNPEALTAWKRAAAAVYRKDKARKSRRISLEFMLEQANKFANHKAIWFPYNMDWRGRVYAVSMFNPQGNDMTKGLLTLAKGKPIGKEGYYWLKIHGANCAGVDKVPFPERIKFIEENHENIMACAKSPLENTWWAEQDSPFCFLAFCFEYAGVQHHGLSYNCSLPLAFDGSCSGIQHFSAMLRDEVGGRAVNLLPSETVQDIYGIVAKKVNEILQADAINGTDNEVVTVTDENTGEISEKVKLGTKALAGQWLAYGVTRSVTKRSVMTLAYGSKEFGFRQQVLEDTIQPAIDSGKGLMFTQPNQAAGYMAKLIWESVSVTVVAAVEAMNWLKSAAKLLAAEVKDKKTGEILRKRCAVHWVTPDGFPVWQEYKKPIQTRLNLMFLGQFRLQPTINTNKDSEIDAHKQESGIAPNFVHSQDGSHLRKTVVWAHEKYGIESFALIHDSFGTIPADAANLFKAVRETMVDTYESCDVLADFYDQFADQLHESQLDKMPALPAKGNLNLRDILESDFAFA

On to `Cn1cc([C@@H]2O[C@H](COP(O)(=S)OP(=O)(O)OP(=O)(O)O)C(O)C2O)c(=O)[nH]c1=O` (stereo in doubt) [00902015002 (195), 1-Methyl-pseudo-U-alpha-thio-TP], for which the “EPO In Vitro Transcription yield” value in test [1] amounted to 0.7679 mg. In addition, the “GCSF In Vitro Transcription yield” value in test [1] is given as 0.6582 mg. Moreover, the “Luc In Vitro Transcription yield” value in test [1] turned out to be 0.6011 mg. Further, the “Luc Expression (RLUs)” value in test [2] turned out to be 1201 RLUs; in test [5], 4900 RLUs. Also, the “GCSF Expression” value in test [3] was found to be 4244 pg/mL; in test [6], 372100 pg/mL. In addition, the “Epo Expression” value in test [4] is 1694 pg/mL; in test [7], 348600 pg/mL. The “Luc (3 Donor samples)” value in test [8] (Luc mRNA, 1st value in cell) was determined as 180 pg/mL; in test [8] (Luc mRNA, 2nd value in cell) it was 500 pg/mL; in test [8] (Luc mRNA, 3rd value in cell) it was 180 pg/mL. Also, the “hEPO (3 Donor samples)” value in test [8] (hEPO mRNA, 1st value in cell) is -290 pg/mL; in test [8] (hEPO mRNA, 2nd value in cell), 512.5 pg/mL; in test [8] (hEPO mRNA, 3rd value in cell), 475 pg/mL. Moreover, the “hGCSF (3 Donor samples)” value in test [8] (hGCSF mRNA, 1st value in cell) came to 425 pg/mL; in test [8] (hGCSF mRNA, 2nd value in cell) it was 916.66 pg/mL; in test [8] (hGCSF mRNA, 3rd value in cell), 1250 pg/mL.

For the molecule `Nc1nc(=O)n([C@@H]2O[C@H](COP(=O)(O)OP(=O)(O)OP(=O)(O)O)C(O)C2O)cc1Br` (stereo in doubt) [03601014008 (379), 5-Bromo-CTP], the “EPO In Vitro Transcription yield” value in test [1] is recorded as 0.3454 mg. Further, the “GCSF In Vitro Transcription yield” value in test [1] was determined as 0.3685 mg. Moreover, in test [1], the “Luc In Vitro Transcription yield” value is reported as 0.5161 mg. The “Luc Expression (RLUs)” value in test [2] is given as 194900 RLUs; in test [5], 125700 RLUs. For the same molecule, the “GCSF Expression” value in test [3] worked out at 13510 pg/mL; in test [6], 1003000 pg/mL. Further, the “Epo Expression” value was 8581 pg/mL in test [4] and 3263000 pg/mL in test [7]. For the same molecule, the “interferon-alpha concentration in PBMC supernatant” value (“interferon-alpha concentration” below) was 5470 pg/mL in test [8] (Luc mRNA, 1st value in cell); 1080 pg/mL in test [8] (Luc mRNA, 2nd value in cell); 5420 pg/mL in test [8] (Luc mRNA, 3rd value in cell); 2300 pg/mL in test [8] (hEPO mRNA, 1st value in cell); 487.5 pg/mL in test [8] (hEPO mRNA, 2nd value in cell); 500 pg/mL in test [8] (hEPO mRNA, 3rd value in cell). For the same molecule, the “interferon-alpha concentration” value turned out to be 2808.33 pg/mL in test [8] (hGCSF mRNA, 1st value in cell); 2266.67 pg/mL in test [8] (hGCSF mRNA, 2nd value in cell); 1650 pg/mL in test [8] (hGCSF mRNA, 3rd value in cell).

On to `COc1cn([C@@H]2O[C@H](COP(=O)(O)OP(=O)(O)OP(=O)(O)O)C(O)C2O)c(=O)[nH]c1=O` (stereo in doubt) [Compound 00901013007, 5-methoxy-UTP], for which the “EPO In Vitro Transcription yield” value in test [1] stood at 0.1727 mg. The “GCSF In Vitro Transcription yield” value in test [1] stood at 0.1546 mg. Further, the “Luc In Vitro Transcription yield” value in test [1] was found to be 0.3817 mg. Further, the “Luc Expression (RLUs)” value was determined as 306600 RLUs in test [2] and 31580 RLUs in test [5]. Moreover, the “GCSF Expression” value in test [3] turned out to be 26440 pg/mL; in test [6], 1399000 pg/mL. For the same molecule, the “Epo Expression” value in test [4] worked out at 17530 pg/mL; in test [7] it was 1116000 pg/mL. The “interferon-alpha concentration” value in test [8] (Luc mRNA, 1st value in cell) is 390 pg/mL; in test [8] (Luc mRNA, 2nd value in cell), -70 pg/mL; in test [8] (Luc mRNA, 3rd value in cell) it was -170 pg/mL; in test [8] (hEPO mRNA, 1st value in cell), -210 pg/mL; in test [8] (hEPO mRNA, 2nd value in cell), 162.5 pg/mL; in test [8] (hEPO mRNA, 3rd value in cell), 150 pg/mL. Besides, the “interferon-alpha concentration” value in test [8] (hGCSF mRNA, 1st value in cell) was 350 pg/mL; in test [8] (hGCSF mRNA, 2nd value in cell) it was -41.66 pg/mL; in test [8] (hGCSF mRNA, 3rd value in cell), 40 pg/mL.

In the case of `CC(=O)Nc1ccn([C@@H]2O[C@H](COP(=O)(O)OP(=O)(O)OP(=O)(O)O)C(O)C2O)c(=O)n1` (stereo in doubt) [Compound 00901014007, N4-Ac-CTP], in test [1], the “EPO In Vitro Transcription yield” value came to 0.4351 mg. Besides, the “GCSF In Vitro Transcription yield” value in test [1] was found to be 0.3658 mg. The “Luc In Vitro Transcription yield” value in test [1] is given as 0.4394 mg. Moreover, the “Luc Expression (RLUs)” value in test [2] was 167600 RLUs; in test [5], 141300 RLUs. In addition, the figures for the “GCSF Expression” value in test [3] and in test [6] were 8794 pg/mL and 2094000 pg/mL, respectively. The “Epo Expression” value in test [4] came to 8675 pg/mL; in test [7], 2907000 pg/mL. In addition, the “interferon-alpha concentration” value in test [8] (Luc mRNA, 1st value in cell) amounted to 7170 pg/mL; in test [8] (Luc mRNA, 2nd value in cell), 2500 pg/mL; in test [8] (Luc mRNA, 3rd value in cell) it was 5879 pg/mL; in test [8] (hEPO mRNA, 1st value in cell), 4050 pg/mL; in test [8] (hEPO mRNA, 2nd value in cell), 2137.5 pg/mL; in test [8] (hEPO mRNA, 3rd value in cell) it was 5850 pg/mL. Besides, the “interferon-alpha concentration” value in test [8] (hGCSF mRNA, 1st value in cell) amounted to 5683.33 pg/mL; in test [8] (hGCSF mRNA, 2nd value in cell), 4883.33 pg/mL; in test [8] (hGCSF mRNA, 3rd value in cell), 4590 pg/mL.

These data come from patent US20160304552A1, “MODIFIED NUCLEIC ACID MOLECULES AND USES THEREOF” (MODERNA THERAPEUTICS, INC., priority 2013, published 2016).
